Results taken from patent US20150297694A1, “CANCER DIAGNOSTIC AND THERAPEUTIC METHOD TARGETING MOLECULES EXPRESSED IN CANCER STEM CELLS” (NIIGATA UNIVERSITY, priority 2012, published 2015).

Test system: PBMC of healthy volunteers (HLA-A*0201 or HLA-A*2601)
Assay: IFN-γ production (ELISA) by DDX3X-derived peptide stimulation of peptide-induced CTL from PBMC
Assay type: cell-based, human
Conditions: peptide 20 μg/mL, 24 hours
Procedure: PBMC (1.5×10^7 cells) were inoculated in a 24-well plate in 1.5×10^6 cells/well (Day 0). Then, three types of DDX3X-derived peptides (final concentration 20 μg/mL each), and IL-7 (final concentration 10 ng/mL) were added to each well, and the cells were cultured at 37° C. in 5% CO2.
The cells were re-stimulated after 1 week (Day 7). For re-stimulation, the PBMC cryopreserved as antigen-presenting cells in Day 0 were thawed, and the three types of DDX3X-derived peptides (final concentration 20 μg/mL each) were added and conjugated at 37° C. for 2 hours after adjusting the cells to 3×10^6 cells/mL or less. This was followed by addition of a mitomycin C [Kyowa Hakko Kirin] solution to make the final concentration 50 μg/mL, and the cells were treated at 37° C. for 45 min. The cells were washed twice with AIM-V, and resuspended in medium to obtain an antigen-presenting cell suspension. After harvesting cells cultured for 1 week, the cells were inoculated in a 24-well plate in 1.2×10^6 cells/well, and the antigen-presenting cell suspension was inoculated with the same number of cells. Finally, IL-7 was added at 10 ng/ml, and the cells were cultured at 37° C. in 5% CO2. After 2 days (Day 9), half of the culture medium was gently removed from each well, and replaced with 40 U/mL of IL-2-containing medium for further culture. The half-volume replacement of the culture medium with 20 U/mL of IL-2-containing medium was repeated in the same fashion every other day (Day 11, Day 13). Re-stimulation was repeated in Day 14 and Day 21 using the same procedure. […]
Twenty-four hours after peptide stimulation, the culture supernatant was gently collected from each well. IFN-γ concentration in each culture supernatant was detected by ELISA, by using an ELISA reagent set (BD OptEIA ELISA set (human IFN-7)(trade name)) according to the manufacturer's protocol after modification. […] Measurements were made with a visible wavelength absorbance microplate reader (VERSAmax(trade name); Molecular Device).

FVETKKGADSLEDFLYHEGY (listed as Homo sapiens) [DDX3X-20 mer]
samples showing IFN-γ production (Day 28, samples with A*2601): one of the five

LEDFLYHEGY (listed as Homo sapiens) [DDX3X-10 mer]
samples showing IFN-γ production (Day 21, samples with A*2601): two of the five | samples showing IFN-γ production (Day 28, samples with A*0201): one of the six
